{"source": "patent US11883505B2", "about": "“Anticancer drug-containing plant virus particles” (CASE WESTERN RESERVE UNIVERSITY, priority 2015, dated 2024)", "key": {"MDA-MB-231 xenografts": {"test_system": "MDA-MB-231 xenografts", "assay": "Treatment of MDA-MB-231 xenografts in NCR nu/nu mice", "assay_type": "in vivo, mouse", "conditions": "1.0 mg/kg (normalized to platinum or TMV content), weekly intravenous bolus", "method": "FIGS. 7A-C show treatment of MDA-MB-231 xenografts in an athymic mouse model. […] Tumor volumes were monitored daily, and total volume was normalized to initial tumor size at time of treatment. Each treatment group consists of 5 animals (n=5); *indicates p<0.05.\nAll animal studies were carried using IACUC-approved procedures. […] The dosage was normalized to platinum or TMV content."}, "[1]": {"test_system": "OV81.2 (ovarian cancer, primary patient cells)", "assay": "MTT assay, primary patient ovarian cancer cells", "assay_type": "cell-based, human", "conditions": "primary patient cells OV81.2", "procedure": "(§1) The assay was performed as per manufacturer's recommendation; a BioTek Synergy HT multidetection microplate reader was used for read-out."}, "[2]": {"test_system": "A2780/CP70 (ovarian cancer resistant to cisplatin)", "assay": "MTT assay, ovarian cancer cells resistant to cisplatin", "assay_type": "cell-based, human", "conditions": "ovarian cancer cells resistant to cisplatin treatment", "procedure": "as §1"}}}
{"compound": "N.N.[Cl][Pt][Cl]", "note": "[cisplatin]", "values": [{"measurement": "tumor growth / treatment effect", "setting": "MDA-MB-231 xenografts", "result": "ineffective"}]}
{"compound": "phenanthriplatin", "values": [{"measurement": "efficacy versus cisplatin", "setting": "[1]", "result": "Enhanced efficacy"}, {"measurement": "efficacy versus cisplatin", "setting": "[2]", "result": "enhanced efficacy"}, {"measurement": "tumor growth / treatment effect", "setting": "MDA-MB-231 xenografts", "result": "ineffective"}]}
